Article PMC8716824, “Design, Synthesis and Anti-Lung Cancer Evaluation of 1, 2, 3-Triazole Tethered Dihydroartemisinin-Isatin Hybrids” (Frontiers in Pharmacology, 2021)
Where two headings read alike, the source gives them in different places.

Key:
Format in all cases: cell-based
[1] = test system: doxorubicin-resistant A549 (A549/DOX) lung cancer cells; assay: MTT antiproliferative assay, A549/DOX
Procedure: (§1) The antiproliferative activity of 1,2,3-triazole tethered dihydroartemisinin-isatin hybrids 8a-c and 9a-k against A549, multidrug-resistant A549/DOX and A549/DDP lung cancer cell lines as well as cytotoxicity towards mouse embryonic fibroblast cells NIH/3T3 were assessed by 3-(4,5-dimethylthiazol-2-yl)-2,5-diphenyltetrazolium bromide (MTT) assay, and half maximal inhibitory concentration (IC50) values were listed in Table 2. A549, A549/DOX, and A549/DDP lung cancer cells (2 × 10^3) were plated in each well of a 96-well plate and were allowed to adhere and spread for 24 h. The 1,2,3-triazole tethered dihydroartemisinin-isatin hybrids 8a-c and 9a-k were added to a final concentration of 100 μM, and the cells were cultured for 24 h at 37°C. 3-(4,5-dimethyl-2-thiazolyl)-2,5-diphenyltetrazolium bromide (MTT) solution (10 µL) was added to each well, and the cultures were incubated for an additional 4 h. A further 100 µL of […] was added and incubation continued overnight. The absorbance at 540 nm was determined in each well with a 96-well plate reader. The growth of the treated cells was compared with that of untreated cells.

[2] = test system: A549 lung cancer cells; assay: MTT antiproliferative assay, A549
Procedure: as §1

[3] = test system: mouse embryonic fibroblast cells NIH/3T3; assay: MTT cytotoxicity assay, NIH/3T3; settings: for SI (selectivity index): IC50(NIH/3T3)/IC50(A549); for IC50: cytotoxicity, NIH/3T3 cells, MTT (called CC50 in method)
Procedure: The antiproliferative activity of 1,2,3-triazole tethered dihydroartemisinin-isatin hybrids 8a-c and 9a-k against A549, multidrug-resistant A549/DOX and A549/DDP lung cancer cell lines as well as cytotoxicity towards mouse embryonic fibroblast cells NIH/3T3 were assessed by 3-(4,5-dimethylthiazol-2-yl)-2,5-diphenyltetrazolium bromide (MTT) assay, and half maximal inhibitory concentration (IC50) values were listed in Table 2.
The cytotoxicity (CC50) of the synthesized 1,2,3-triazole tethered dihydroartemisinin-isatin hybrids 8a-c and 9a-k were examined by the MTT assay in mouse embryonic fibroblast cells NIH/3T3. The compounds were dissolved in DMSO with concentrations from 1,024 to 1 μg/ml. The NIH/3T3 cells were maintained in culture medium at 37°C under 5% CO2 atmosphere. Cells were seeded in 96-well plates (1 × 10^4 cell per well) and allowed to recover for 24 h. After 72 h of exposure, cells were harvested and cell viability was assessed by MTT assay. The CC50 values were calculated by Bliss analy.

[4] = test system: cisplatin-resistant A549 (A549/DDP) lung cancer cells; assay: MTT antiproliferative assay, A549/DDP
Procedure: as §1

[5] = test system: A549, A549/DOX and A549/DDP lung cancer cell lines; assay: MTT antiproliferative assay, ranges pooled over lung cancer cell lines
Procedure: as §1

[6] = range over the three lung cancer cell lines, read-out: IC50, range over A549, A549/DOX and A549/DDP

Row | SMILES | IC50 ([1]; Homo sapiens) [µM] | IC50 ([2]; Homo sapiens) [µM] | IC50 ([4]; A549/DDP) [µM] | IC50 [5, 6] [µM] | SI (selectivity index) [3] | IC50 ([3]; Mus musculus, NIH3T3) [µM] | IC50 ([5]; range over A549 and A549/DOX, read-out: IC50, range over A549 and A549/DOX) [µM] | IC50 [1] [µM] | IC50 [2] [µM] | IC50 [3] [µM] | IC50 [4] [µM]
1 | CON=C1C(=O)N(CCn2cc(COC3O[C@@H]4O[C@@]5(C)CC[C@H]6[C@H](C)CC[C@@H]([C@H]3C)[C@@]46OO5)nn2)c2ccc(OC)cc21 (stereo partly drawn) [9f, 5-methoxy-3-(methoxyimino)-1-(2-(4-((((3R,5aS,6R,8aS,9R,12R,12aR)-3,6,9-trimethyldecahydro-12H-3,12-epoxy[1,2]dioxepino[4,3-i]isochromen-10-yl)oxy)methyl)-1H-1,2,3-triazol-1-yl)ethyl)indolin-2-one] | 79.5 | 65.4 | 51.8 |  | >1.5 | > 100 |  |  |  |  | 
2 | COc1ccc2c(c1)C(=O)C(=O)N2CCn1cc(COC2O[C@@H]3O[C@@]4(C)CC[C@H]5[C@H](C)CC[C@@H]([C@H]2C)[C@@]35OO4)nn1 (stereo partly drawn) [8b, 5-methoxy-1-(2-(4-((((3R,5aS,6R,8aS,9R,12R,12aR)-3,6,9-trimethyldecahydro-12H-3,12-epoxy[1,2]dioxepino[4,3-i]isochromen-10-yl)oxy)methyl)-1H-1,2,3-triazol-1-yl)ethyl)indoline-2,3-dione] | 32 | 21.6 | 19.5 |  | >4.6 | > 100 |  |  |  |  | 
3 | CON=C1C(=O)N(CCn2cc(COC3O[C@@H]4O[C@@]5(C)CC[C@H]6[C@H](C)CC[C@@H]([C@H]3C)[C@@]46OO5)nn2)c2ccc(F)cc21 (stereo partly drawn) [9j, 5-fluoro-3-(methoxyimino)-1-(2-(4-((((3R,5aS,6R,8aS,9R,12R,12aR)-3,6,9-trimethyldecahydro-12H-3,12-epoxy[1,2]dioxepino[4,3-i]isochromen-10-yl)oxy)methyl)-1H-1,2,3-triazol-1-yl)ethyl)indolin-2-one] | 13 | 9.61 | 38.2 |  | >10.4 | > 100 |  |  |  |  | 
4 | N.N.[Cl][Pt][Cl] [cisplatin, reference compound] |  |  |  | 9.38 to 66.9 |  |  | 9.38 to 19.7 | 19.7 | 9.38 | > 100 | 66.9
5 | C[C@@H]1CC[C@H]2[C@@H](C)C(=O)O[C@@H]3O[C@@]4(C)CC[C@@H]1[C@]32OO4 [Artemisinin] | > 100 | > 100 | > 100 | > 100 |  | > 100 |  |  |  |  | 
6 | COc1ccc2c(c1)C(=NOCc1ccccc1)C(=O)N2CCn1cc(COC2O[C@@H]3O[C@@]4(C)CC[C@H]5[C@H](C)CC[C@@H]([C@H]2C)[C@@]35OO4)nn1 (stereo partly drawn) [9h, 3-((benzyloxy)imino)-5-methoxy-1-(2-(4-((((3R,5aS,6R,8aS,9R,12R,12aR)-3,6,9-trimethyldecahydro-12H-3,12-epoxy[1,2]dioxepino[4,3-i]isochromen-10-yl)oxy)methyl)-1H-1,2,3-triazol-1-yl)ethyl)indolin-2-one] | 77.7 | 44.7 | 59.4 |  | >2.2 | > 100 |  |  |  |  | 
7 | C[C@H]1[C@@H](O)O[C@@H]2O[C@@]3(C)CC[C@H]4[C@H](C)CC[C@@H]1[C@@]24OO3 [DHA, Dihydroartemisinin] | 88 | 69.4 | 75.9 | 69.4 to 88 | >1.4 | > 100 |  |  |  |  | 

Continued, in another order:

Row | IC50 ([1]; Homo sapiens) [µM] | IC50 ([2]; Homo sapiens) [µM] | IC50 ([4]; A549/DDP) [µM] | IC50 [5, 6] [µM] | SMILES | SI (selectivity index) [3] | IC50 ([3]; Mus musculus, NIH3T3) [µM] | IC50 ([5]; range over A549 and A549/DOX, read-out: IC50, range over A549 and A549/DOX) [µM] | IC50 [1] [µM] | IC50 [2] [µM] | IC50 [3] [µM] | IC50 [4] [µM]
8 | 19.5 | 22.7 | 27.4 |  | CON=C1C(=O)N(CCn2cc(COC3O[C@@H]4O[C@@]5(C)CC[C@H]6[C@H](C)CC[C@@H]([C@H]3C)[C@@]46OO5)nn2)c2ccccc21 (stereo partly drawn) [9c, 3-(methoxyimino)-1-(2-(4-((((3R,5aS,6R,8aS,9R,12R,12aR)-3,6,9-trimethyldecahydro-12H-3,12-epoxy[1,2]dioxepino[4,3-i]isochromen-10-yl)oxy)methyl)-1H-1,2,3-triazol-1-yl)ethyl)indolin-2-one] | >4.4 | > 100 |  |  |  |  | 
9 | 31.1 | 15.8 | 28.7 |  | CCON=C1C(=O)N(CCn2cc(COC3O[C@@H]4O[C@@]5(C)CC[C@H]6[C@H](C)CC[C@@H]([C@H]3C)[C@@]46OO5)nn2)c2ccc(F)cc21 (stereo partly drawn) [9k, 3-(ethoxyimino)-5-fluoro-1-(2-(4-((((3R,5aS,6R,8aS,9R,12R,12aR)-3,6,9-trimethyldecahydro-12H-3,12-epoxy[1,2]dioxepino[4,3-i]isochromen-10-yl)oxy)methyl)-1H-1,2,3-triazol-1-yl)ethyl)indolin-2-one] | >6.3 | > 100 |  |  |  |  | 
10 | 20.8 | 25.6 | 33.7 |  | CCON=C1C(=O)N(CCn2cc(COC3O[C@@H]4O[C@@]5(C)CC[C@H]6[C@H](C)CC[C@@H]([C@H]3C)[C@@]46OO5)nn2)c2ccccc21 (stereo partly drawn) [9d, 3-(ethoxyimino)-1-(2-(4-((((3R,5aS,6R,8aS,9R,12R,12aR)-3,6,9-trimethyldecahydro-12H-3,12-epoxy[1,2]dioxepino[4,3-i]isochromen-10-yl)oxy)methyl)-1H-1,2,3-triazol-1-yl)ethyl)indolin-2-one] | >3.9 | > 100 |  |  |  |  | 
11 | 31.4 | 16.3 | 29.9 |  | C[C@@H]1CC[C@H]2[C@@H](C)C(OCc3cn(CCN4C(=O)C(=NOCc5ccccc5)c5ccccc54)nn3)O[C@@H]3O[C@@]4(C)CC[C@@H]1[C@]32OO4 (stereo partly drawn) [9e, 3-((benzyloxy)imino)-1-(2-(4-((((3R,5aS,6R,8aS,9R,12R,12aR)-3,6,9-trimethyldecahydro-12H-3,12-epoxy[1,2]dioxepino[4,3-i]isochromen-10-yl)oxy)methyl)-1H-1,2,3-triazol-1-yl)ethyl)indolin-2-one] | >6.1 | > 100 |  |  |  |  | 
12 | 26.1 | 12 | 30.3 |  | C[C@@H]1CC[C@H]2[C@@H](C)C(OCc3cn(CCN4C(=O)C(=NO)c5ccccc54)nn3)O[C@@H]3O[C@@]4(C)CC[C@@H]1[C@]32OO4 (stereo partly drawn) [9b, 3-(hydroxyimino)-1-(2-(4-((((3R,5aS,6R,8aS,9R,12R,12aR)-3,6,9-trimethyldecahydro-12H-3,12-epoxy[1,2]dioxepino[4,3-i]isochromen-10-yl)oxy)methyl)-1H-1,2,3-triazol-1-yl)ethyl)indolin-2-one] | >8.3 | > 100 |  |  |  |  | 
13 | 38.4 | 16.3 | 30.9 |  | C[C@@H]1CC[C@H]2[C@@H](C)C(OCc3cn(CCN4C(=O)C(=NNC(N)=S)c5ccccc54)nn3)O[C@@H]3O[C@@]4(C)CC[C@@H]1[C@]32OO4 (stereo partly drawn) [9a, 2-(2-oxo-1-(2-(4-((((3R,5aS,6R,8aS,9R,12R,12aR)-3,6,9-trimethyldecahydro-12H-3,12-epoxy[1,2]dioxepino[4,3-i]isochromen-10-yl)oxy)methyl)-1H-1,2,3-triazol-1-yl)ethyl)indolin-3-ylidene)hydrazine-1-carbothioamide] | >6.1 | > 100 |  |  |  |  | 
14 | 45 | 73.8 | 61.7 |  | CCON=C1C(=O)N(CCn2cc(COC3O[C@@H]4O[C@@]5(C)CC[C@H]6[C@H](C)CC[C@@H]([C@H]3C)[C@@]46OO5)nn2)c2ccc(OC)cc21 (stereo partly drawn) [9g, 3-(ethoxyimino)-5-methoxy-1-(2-(4-((((3R,5aS,6R,8aS,9R,12R,12aR)-3,6,9-trimethyldecahydro-12H-3,12-epoxy[1,2]dioxepino[4,3-i]isochromen-10-yl)oxy)methyl)-1H-1,2,3-triazol-1-yl)ethyl)indolin-2-one] | >1.3 | > 100 |  |  |  |  | 
